Data reported in patent US9464064B2, “HCV helicase inhibitors and methods of use thereof” (University of Kansas, priority 2011, dated 2016).
Positions of bridges follow the written chain, without caps; N, C: chain ends. Non-standard residues stand in square brackets, D forms with d. Residues, ends and D or L forms follow the SMILES beside them. ξ: configuration not given here. *: point of attachment. ξNMePhe(4-NMe2) = CNC(Cc1ccc(N(C)C)cc1)C(=O)O; Picolinoyl(3-OH) = O=C(c1ncccc1O)*; ξPip(4-oxo) = O=C1CCNC(C(=O)O)C1; Phg = N[CH](C(=O)O)c1ccccc1; Abu = CC[CH](N)C(=O)O

Biological target: T1, HCV NS3 helicase NS3h_1b(con1) (Hepatitis C virus genotype 1b, UniProt Q9WMX2)
T1 construct: truncated C-terminally His-tagged NS3 proteins lacking the N-terminal protease, called NS3h; His-tag (C); made in house
T1 sequence (Q9WMX2 1192-1657): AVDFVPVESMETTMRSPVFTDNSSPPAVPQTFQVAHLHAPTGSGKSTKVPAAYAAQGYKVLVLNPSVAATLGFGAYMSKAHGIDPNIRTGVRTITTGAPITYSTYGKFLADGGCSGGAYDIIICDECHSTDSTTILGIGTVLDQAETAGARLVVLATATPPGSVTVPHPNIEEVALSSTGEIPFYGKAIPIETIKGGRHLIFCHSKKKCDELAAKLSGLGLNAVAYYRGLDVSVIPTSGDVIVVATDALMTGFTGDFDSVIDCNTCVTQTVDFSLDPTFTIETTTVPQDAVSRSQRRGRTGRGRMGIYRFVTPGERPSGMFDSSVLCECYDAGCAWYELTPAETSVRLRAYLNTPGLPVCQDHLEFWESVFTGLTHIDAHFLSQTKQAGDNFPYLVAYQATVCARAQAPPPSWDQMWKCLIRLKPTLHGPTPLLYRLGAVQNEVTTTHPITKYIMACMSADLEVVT
Test: MBHA screen of NCI mechanistic set library at 20 μM (percent inhibition, compound interference)
Assay type: biochemical
Conditions: compounds at 20 μM; for Inh. (%) (Inhibition): calculated from Equation 1
Procedure: All molecular beacon-based helicase assays (MBHAs) were performed according to known methods (Belon & Frick (2008) supra; Belon & Frick (2009) supra). […] In each flat, black 384-well plate, 56 compounds were tested, in triplicate, along with three negative controls (DMSO only), three positive controls (500 nM dT20), and two wells with no enzyme. Fluorescence was read before ATP (F0) addition and 30 minutes after ATP was added to 1 mM (F30) using a Tecan Infinite M200 fluorescence microplate reader with excitation and emission wavelengths set to 643 and 670 nm, respectively. Percent inhibition was calculated with equation 1, and compound interference in the MBHA was calculated with equation 2.
In Equations 1 and 2, Fc0 is the fluorescence of the reactions containing the test compound before adding ATP, Fc30 is the fluorescence of the test compound reaction 30 minutes after adding ATP. F(−)0 is the average of three DMSO-only negative control reactions before adding ATP and F(−)30 is the average of three DMSO-only reactions 30 minutes after adding ATP.
To identify HCV helicase inhibitors, the MBHA was first used to screen the National Cancer Institute Developmental Therapeutics Program's mechanistic set library. In total, 827 compounds (at 20 μM) were screened using a MBHA with a DNA substrate (Table 1). Compounds were ranked by their ability to inhibit HCV helicase-catalyzed DNA unwinding as calculated from Equation 1.
Compound interference in the MBHA was evaluated by comparing the fluorescence of reactions containing each compound to the fluorescence of DMSO-only negative controls before ATP was added.

[1] = MBHA with DNA substrate, assay interference calculated with Equation 2
[2] = assay interference calculated with Equation 2 (fluorescence vs DMSO-only controls before ATP)

Row | SMILES | Int.* (Ratio) (Interference) [1] | Inh. (%) (Inhibition) (MBHA with DNA substrate) | Inh. (%) (Inhibition) (MBHA with a DNA substrate) | Int.* (Ratio) (Interference) [2]
1 | OC(CN1CCCCC1)c1ccc(/C=C/c2ccc(Cl)cc2)cc1 (stereo not shown) [Compound 26040] | 0.97 | −17.0 | – | –
2 | CC(O)CCC(=O)c1ccoc1 (stereo not shown) [Compound 349438] | – | – | 10.5 | 1.01
3 | [Cl-].c1csc(C[N+]23CN4CN(CN(C4)C2)C3)c1 [Compound 49660] | 0.93 | 21.2 | – | –
4 | CCC[CH2][Sn]1([CH2]CCC)[S]CC[N]1S(=O)(=O)c1ccc(C)cc1 [Compound 183359] | 0.83 | 13.3 | – | –
5 | CC(C)C1(Cl)CCC2C3(C)CCCC(C)(C(=O)O)C3CC(Cl)C2(Cl)C1Cl (stereo not shown) [Compound 2979] | 1.00 | −12.5 | – | –
6 | COc1cc2c(c(OC)c1OC)-c1ccc(OC)c(=O)cc1[C@@H](NC(=O)c1ccccc1)CC2 [Compound 33410] | – | – | −28.8 | 1.16
7 | CC1Oc2cc3c(-c4c(O)cc(O)c5c(O)c6c(cc45)OC(C)C(C)C6=O)c(O)cc(O)c3c(O)c2C(=O)C1C (stereo not shown) [Compound 345647] | 0.80 | −17.6 | – | –
8 | CC(C)(C)c1ccc(O)c(CN(Cc2cc(C(C)(C)C)ccc2O)C2CCCCC2)c1 [Compound 48151] | 0.98 | 2.1 | – | –
9 | CC(C)=CCC1=C(O)c2ccccc2C(=O)C1=O [Compound 11905] | – | – | −4.3 | 0.80
10 | C=C1C(=O)OCC2C(C(=O)O)=CC3C(C)C(C)=CC123 (stereo not shown) [Compound 145150] | 1.12 | −11.3 | – | –
11 | CC(=O)O[C@@H]1C[C@H]2O[C@@H]3C=C(C)CC[C@]3(C)[C@]1(C)[C@]21CO1 [Compound 267033] | 1.04 | 6.7 | – | –
12 | CCCCCCCCCCCCC(O)C(=O)O (stereo not shown) [Compound 18938] | 1.06 | 1.7 | – | –
13 | CC(=O)c1ccc(Oc2ccc(/C(C)=N/N=C(N)N)cc2)cc1.O=[N+]([O-])O [Compound 97911] | – | – | 11.5 | 0.95
14 | Cc1c2cnccc2c(C)c2c1c1ccccc1n2CCOC(=O)c1ccccc1 [Compound 163443] | 0.88 | −7.6 | – | –
15 | O=C1C(Cl)=C(N2CCN(C3=C(Cl)C(=O)c4ccccc4C3=O)CC2)C(=O)c2ccccc21 [Compound 40341] | – | – | −6.4 | 1.09
16 | Cc1cc(N)c2ccccc2[n+]1CCCCCCCCCC[n+]1c(C)cc(N)c2ccccc21.[Cl-].[Cl-] [Compound 166454] | 0.18 | 60.4 | – | –
17 | CC[C@H]1CN2CCc3cc(OC)c(OC)cc3[C@@H]2C[C@@H]1C[C@H]1NCCc2cc(O)c(OC)cc21 [Compound 32944] | – | – | −28.9 | 1.02
18 | CCN1C=C/C(=C\C=C\c2cc[n+](CC)c3ccccc23)c2ccccc21.[I-] [Compound 34391] | 0.24 | 100.6 | – | –
19 | Cc1cc(C)c(NC(=O)/C=C/c2ccccc2)c(C)c1 [Compound 191384] | 1.07 | −1.8 | – | –
20 | Cc1ccc(Cl)c2c(N=Nc3ccccc3[N+](=O)[O-])c(O)[nH]c12 [Compound 118735] | – | – | −5.2 | 0.96
21 | OCC1OC(n2cnc3c(SCc4ccccc4)ncnc32)C(O)C1O (stereo not shown) [Compound 26273] | – | – | −6.4 | 0.89
22 | CC1=C\C(O)CC(=O)Cc2nc(co2)C(=O)N2CCC=C2C(=O)OC(C(C)C)C(C)/C=C/C(=O)NC/C=C\1.CCC1NC(=O)C(NC(=O)c2ncccc2O)C(C)OC(=O)C(c2ccccc2)NC(=O)C2CC(=O)CCN2C(=O)C(Cc2ccc(N(C)C)cc2)N(C)C(=O)C2CCCN2C1=O (stereo not shown) [Compound 125176] ({Picolinoyl(3-OH)}-T[Abu]P[ξNMePhe(4-NMe2)][ξPip(4-oxo)][Phg]; ester 1-C; configuration not given here) | – | – | −20.2 | 0.90
23 | Oc1ccc(-c2nc3ccccc3s2)cc1 [Compound 33004] | 1.00 | −0.9 | – | –
24 | c1ccc(-c2cccc(-c3ccccn3)n2)nc1 [Compound 3905] | 0.92 | 5.7 | – | –
25 | COc1cc(C[C@H]2c3cc(OC)c(OC)cc3CCN2C)c(Oc2cc3c(cc2OC)-c2c(OC)c(OC)cc4c2[C@H](C3)N(C)CC4)cc1OC [Compound 68075] | 1.02 | 23.1 | – | –

Second part, the compound after the results:

Row | Int.* (Ratio) (Interference) [1] | Inh. (%) (Inhibition) (MBHA with DNA substrate) | Inh. (%) (Inhibition) (MBHA with a DNA substrate) | Int.* (Ratio) (Interference) [2] | SMILES
26 | 0.96 | −7.3 | – | – | COc1ccc(-c2cc(-c3ccccc3)nc3c2CC(=O)Nc2ccccc2-3)cc1OC [Compound 682769]
27 | – | – | −5.0 | 0.91 | CCOC(=O)NC(Nc1ccc(F)cc1)(C(=O)OCC)C(F)(F)F (stereo not shown) [Compound 684845]
28 | 0.99 | 28.1 | – | – | CC(C)(C)NCCC(O)c1cc(C(F)(F)F)nc2c(C(F)(F)F)cccc12.O=P(O)(O)O (stereo not shown) [Compound 305819]
29 | – | – | −23.8 | 1.02 | O=C(CC1(O)C(=O)Nc2c(Cl)cc(Cl)cc21)c1cccc([N+](=O)[O-])c1 (stereo not shown) [Compound 635438]
30 | 0.97 | −7.8 | – | – | CCN(CC)CCOc1ccccc1/C=C/c1noc2ccccc12.Cl [Compound 601101]
31 | 0.92 | −14.5 | – | – | [O-][S+]1c2ccccc2N=C(c2cccc3ccccc23)CC1c1cccc2ccccc12 (stereo not shown) [Compound 634926]
32 | 1.00 | −18.1 | – | – | COc1ccc(NC(=O)CC(=O)N2N=C(C)C(N=Nc3ccc(S(=O)(=O)c4ccc(N=NC5C(=O)N(C(=O)CC(=O)Nc6ccc(OC)cc6)N=C5C)cc4)cc3)C2=O)cc1 (stereo not shown) [Compound 677392]
33 | 1.02 | −17.5 | – | – | COc1cc(/C=C(\C)c2ccc3c(c2)OCO3)cc(OC)c1OC [Compound 648422]
34 | 0.94 | −11.6 | – | – | C1CN(c2nnc(N3CCC3)nn2)C1 [Compound 625748]
35 | – | – | −21.1 | 0.98 | CCCCCCCCCCCCCCCCCCOCC(COCCOCC[N+]1(CCCCCC(=O)[O-])CCCC1)Oc1ncccn1 (stereo not shown) [Compound 623527]
36 | – | – | −6.2 | 0.84 | O=C1C=Cc2ncccc2C1=O [Compound 400944]
37 | 1.10 | 0.9 | – | – | CCOC(=O)C(C)NC(=O)N(C)C12CC3CC(CC(C3)C1)C2 (stereo not shown) [Compound 208913]
38 | 0.65 | 70.0 | – | – | C(=N\NC1=NCCN1)/c1c2ccccc2c(/C=N/NC2=NCCN2)c2ccccc12 [Compound 337766]
39 | 0.97 | 25.6 | – | – | CCC12C[N+]3([O-])CCc4c([nH]c5ccccc45)C(C(=O)OC)(c4cc5c(cc4OC)N(C)C4C(O)(C(=O)OC)C(OC(C)=O)C6(CC)C=CCN7CCC54C76)CC(C3)C1O2 (stereo not shown) [Compound 304421]
40 | 0.97 | −2.4 | – | – | CC(C)(C)c1ccc(OC2CCO2)cc1 (stereo not shown) [Compound 635975]
41 | 0.96 | 0.2 | – | – | CC(C)CCCCCCCCCCCCC(=O)NCC(=O)NC1C(C)OC(Nc2ncnc3nc[nH]c23)C(O)C1O (stereo not shown) [Compound 268251]
42 | – | – | −22.4 | 1.08 | CCOC(=O)c1sc2[n+](c1C)C(=O)/C(=C/c1ccc([N+](=O)[O-])cc1)S2.[Cl-] [Compound 658293]
43 | – | – | −37.8 | 1.20 | Cc1cc([N+](=O)[O-])ccc1Nc1cccc(Cl)c1C [Compound 625641]
44 | 0.89 | −10.9 | – | – | CCCCCCCCCCCCCCCCOP(=O)([O-])OCC[N+](C)(C)C [Compound 605583]
45 | – | – | 9.2 | 0.90 | Cc1ccc(S(=O)(=O)SC/C=C/CSS(=O)(=O)c2ccc(C)cc2)cc1 [Compound 624158]
46 | 0.91 | −8.7 | – | – | O=C(CCCN1CCC(C(O)c2ccc(F)cc2)CC1)c1ccc(F)cc1 (stereo not shown) [Compound 343513]
47 | 0.86 | 14.9 | – | – | CN(C)c1ccc(/C=C/C(=O)c2ccccc2)cc1Br [Compound 643164]
